{"source": "patent US8497385B2", "about": "“Bryostatin analogues, synthetic methods and uses” (The Board of Trustees of the Leland Stanford Junior …, priority 2007, dated 2013)", "key": {"P388 cell line": {"test_system": "P388 cell line", "experiment": "P388 Murine Lymphocytic Leukemia Cell Assay", "assay_type": "cell-based", "experimental": "Cells from a P388 cell line (CellGate, Inc., Sunnyvale, Calif.) are grown in RPMI 1640 cell medium containing fetal calf serum (10%), L-glutamine, penicillin, streptomycin and are split twice weekly. All compounds are first diluted with DMSO. Later serial dilutions are done with a phosphate buffer solution (HYQ DPBS modified phosphate buffered saline). All dilutions are done in glass vials and the final DMSO concentration is always below 0.5% by volume. Final two-fold dilutions are done in a 96 well plate using cell media so that each well contains 50 μL. All compounds are assayed in quadruplicate over 12 concentrations. Cell concentration is measured using a hemacytometer and the final cell concentration is adjusted to 1×10^4 cells/mL with cell medium. The resulting solution of cells (50 μL) is then added to each well and the plates are incubated for 5 days in a 37° C., 5% CO2, humidified incubator (Sanyo CO2 incubator). MTT solution (3-[4,5-dimethylthiazol-2-yl]-2,5-diphenyltetrazolium bromide, 10 μL) is then added to each well and the plates are re-incubated under identical conditions for 2 h. To each well is then added acidified isopropanol (150 μL of i-PrOH solution containing 0.05 N HCl) and mixed thoroughly. The plates are then scanned at 595 nm and the absorbances are read (Wallac Victor 1420 Multilabel Counter). The resulting data is then analyzed to determine an ED50 value using the Prism software package (GraphPad)."}, "[1]": {"test_system": "NCl human cancer cell-lines", "experiment": "In vitro inhibition of growth in NCI human cancer cell lines, all cell groups", "assay_type": "cell-based", "settings": "all cell groups tested"}, "CCRF-CEM": {"test_system": "CCRF-CEM", "experiment": "NCI growth inhibition, CCRF-CEM (Leukemia)", "assay_type": "cell-based, human"}, "K-562": {"test_system": "K-562", "experiment": "NCI growth inhibition, K-562 (Leukemia)", "assay_type": "cell-based, human"}, "RPMI-8226": {"test_system": "RPMI-8226", "experiment": "NCI growth inhibition, RPMI-8226 (Leukemia)", "assay_type": "cell-based, human"}, "SR": {"test_system": "SR", "experiment": "NCI growth inhibition, SR (Leukemia)", "assay_type": "cell-based, human"}, "EKVX": {"test_system": "EKVX", "experiment": "NCI growth inhibition, EKVX (NSC Lung)", "assay_type": "cell-based, human"}, "HOP-62": {"test_system": "HOP-62", "experiment": "NCI growth inhibition, HOP-62 (NSC Lung)", "assay_type": "cell-based, human"}, "HOP-92": {"test_system": "HOP-92", "experiment": "NCI growth inhibition, HOP-92 (NSC Lung)", "assay_type": "cell-based, human"}, "HCC-2998": {"test_system": "HCC-2998", "experiment": "NCI growth inhibition, HCC-2998 (Colon)", "assay_type": "cell-based, human"}, "HT29": {"test_system": "HT29", "experiment": "NCI growth inhibition, HT29 (Colon)", "assay_type": "cell-based, human"}, "SF-295": {"test_system": "SF-295", "experiment": "NCI growth inhibition, SF-295 (CNS)", "assay_type": "cell-based, human"}, "PC-3": {"test_system": "PC-3", "experiment": "NCI growth inhibition, PC-3 (Prostate)", "assay_type": "cell-based, human"}, "SK-MEL-5": {"test_system": "SK-MEL-5", "experiment": "NCI growth inhibition, SK-MEL-5 (Melanoma)", "assay_type": "cell-based, human"}, "CAKI-1": {"test_system": "CAKI-1", "experiment": "NCI growth inhibition, CAKI-1 (Renal)", "assay_type": "cell-based, human"}, "SN12C": {"test_system": "SN12C", "experiment": "NCI growth inhibition, SN12C (Renal)", "assay_type": "cell-based, human"}, "NCI/ADR-RES": {"test_system": "NCI/ADR-RES", "experiment": "NCI growth inhibition, NCI/ADR-RES (Breast)", "assay_type": "cell-based, human"}, "MDA-MB-435": {"test_system": "MDA-MB-435", "experiment": "NCI growth inhibition, MDA-MB-435 (Breast)", "assay_type": "cell-based, human"}, "HS 578T": {"test_system": "HS 578T", "experiment": "NCI growth inhibition, HS 578T (Breast)", "assay_type": "cell-based, human"}}}
{"smiles": "CCCCCCCC(=O)OC1C(=CC(=O)OC)CC2CC(CO)OC(=O)CC(O)CC3CCCC(CC4CCOC(C=CC(C)(C)C1(O)O2)O4)O3", "note": "(centres unmarked) [Formula IIa (702.1)]", "values": [{"measurement": "activity in P388 assay relative to comparison analogues", "setting": "P388 cell line; 702.1 vs C26 methyl-containing analogue, 48, 49 vs other C20 esters", "result": "significantly higher activity"}, {"measurement": "P388 Assay ED50", "setting": "P388 cell line; 5 days incubation, MTT", "result": 17, "unit": "nM"}, {"measurement": "potency relative to bryostatin-1, on average", "setting": "[1]", "result": "at least as potent, on average, as bryostatin-1"}, {"measurement": "Difference of GI50 (log), Desmethyl vs Bryo-1", "setting": "CCRF-CEM", "result": "−0.51"}, {"measurement": "GI50", "setting": "CCRF-CEM; Leukemia", "result": "−5.81 log of molar concentration"}, {"measurement": "Difference of GI50 (log), Desmethyl vs Bryo-1", "setting": "K-562; K-562", "result": "−2.10"}, {"measurement": "GI50", "setting": "K-562; K-562, Leukemia", "result": "−7.5 log of molar concentration"}, {"measurement": "more active than bryostatin-1", "setting": "K-562; K-562, Leukemia", "result": "more than 2 orders of magnitude"}, {"measurement": "Difference of GI50 (log), Desmethyl vs Bryo-1", "setting": "RPMI-8226; RPMI-8226", "result": "−0.82"}, {"measurement": "GI50", "setting": "RPMI-8226; RPMI-8226, Leukemia", "result": "−5.82 log of molar concentration"}, {"measurement": "Difference of GI50 (log), Desmethyl vs Bryo-1", "setting": "SR", "result": "−0.10"}, {"measurement": "GI50", "setting": "SR; Leukemia", "result": "−5.1 log of molar concentration"}, {"measurement": "Difference of GI50 (log), Desmethyl vs Bryo-1", "setting": "EKVX", "result": "−0.28"}, {"measurement": "GI50", "setting": "EKVX; NSC Lung", "result": "−5.58 log of molar concentration"}, {"measurement": "GI50", "setting": "HOP-62", "result": "−4.79 log of molar concentration"}, {"measurement": "Difference of GI50 (log), Desmethyl vs Bryo-1", "setting": "HOP-92; HOP-92", "result": 0.63}, {"measurement": "GI50", "setting": "HOP-92; HOP-92, NSC Lung", "result": "−4.67 log of molar concentration"}, {"measurement": "Difference of GI50 (log), Desmethyl vs Bryo-1", "setting": "HCC-2998; HCC-2998", "result": "−2.24"}, {"measurement": "GI50", "setting": "HCC-2998; HCC-2998, Colon", "result": "−7.54 log of molar concentration"}, {"measurement": "more active than bryostatin-1", "setting": "HCC-2998; HCC-2998, Colon", "result": "more than 2 orders of magnitude"}, {"measurement": "Difference of GI50 (log), Desmethyl vs Bryo-1", "setting": "HT29; HT29", "result": "−0.25"}, {"measurement": "GI50", "setting": "HT29; HT29, Colon", "result": "−5.55 log of molar concentration"}, {"measurement": "Difference of GI50 (log), Desmethyl vs Bryo-1", "setting": "SF-295; SF-295", "result": "−0.85"}, {"measurement": "GI50", "setting": "SF-295; SF-295, CNS", "result": "−6.05 log of molar concentration"}, {"measurement": "Difference of GI50 (log), Desmethyl vs Bryo-1", "setting": "PC-3; PC-3", "result": "−0.30"}, {"measurement": "GI50", "setting": "PC-3; PC-3, Prostate", "result": "−5.6 log of molar concentration"}, {"measurement": "Difference of GI50 (log), Desmethyl vs Bryo-1", "setting": "SK-MEL-5; SK-MEL-5", "result": "−0.73"}, {"measurement": "GI50", "setting": "SK-MEL-5; SK-MEL-5, Melanoma", "result": "−6.43 log of molar concentration"}, {"measurement": "Difference of GI50 (log), Desmethyl vs Bryo-1", "setting": "CAKI-1; CAKI-1", "result": "−0.30"}, {"measurement": "GI50", "setting": "CAKI-1; CAKI-1, Renal", "result": "−5.7 log of molar concentration"}, {"measurement": "Difference of GI50 (log), Desmethyl vs Bryo-1", "setting": "SN12C", "result": "−0.49"}, {"measurement": "GI50", "setting": "SN12C; Renal", "result": "−5.59 log of molar concentration"}, {"measurement": "GI50", "setting": "NCI/ADR-RES", "result": "−4.74 log of molar concentration"}, {"measurement": "Difference of GI50 (log), Desmethyl vs Bryo-1", "setting": "MDA-MB-435; MDA-MB-435", "result": "−2.56"}, {"measurement": "GI50", "setting": "MDA-MB-435; MDA-MB-435, Breast", "result": "−7.66 log of molar concentration"}, {"measurement": "more active than bryostatin-1", "setting": "MDA-MB-435; MDA-MB-435, Breast", "result": "more than 2 orders of magnitude"}, {"measurement": "Difference of GI50 (log), Desmethyl vs Bryo-1", "setting": "HS 578T", "result": 0.02}, {"measurement": "GI50", "setting": "HS 578T; Breast", "result": "−5.18 log of molar concentration"}]}
